Structures are written as SMILES.

The target of the assay is T1, TEAD1 (Homo sapiens, UniProt P28347).
T1 construct: endogenous in cells; host or cells: MCF-7
Nature of the assay: TEAD1-Luciferase reporter assay (MCF-7 cell-based TEAD1-Luc assay). The settings on record: cells treated with compound overnight, luciferase chemiluminescence readout. Here is the method:
TEAD1-Luciferase Reporter Assay to Characterize the Pharmacological Properties of the Tead1 Covalent Inhibitors
FIG. 1 is a schematic illustration of the mechanism of TEAD1 inhibition by the disclosed compounds, which is the theoretical basis for the development of a TEAD-YAP/TAZ cell-based functional assay to characterize the pharmacological properties of the synthesized inhibitor compounds. The MCF-7 cell-based TEAD1-Luc assay for the IC50 measurement was performed as below. Compounds 2, 4, 5, and 7, representing different chemical scaffolds, were characterized. About 200 μL of culture medium was placed in each of the 10^4 cell/well in a 96-well plate. The next day the cells were treated with the synthesized compounds for overnight. The luciferase activity was measured with a chemiluminescent assay kit. Specifically, the plate was equilibrated at room temperature. […] and 50 μL of the medium was left inside. To each well was added 50 μL Luciferase reagents. The plates were gently rocked for more than about 15 minutes at room temperature. The luminescence signal was then read and recorded. Table 2 below summarizes the measured IC50 values for the disclosed compounds.

T1 sequence (P28347 whole entry): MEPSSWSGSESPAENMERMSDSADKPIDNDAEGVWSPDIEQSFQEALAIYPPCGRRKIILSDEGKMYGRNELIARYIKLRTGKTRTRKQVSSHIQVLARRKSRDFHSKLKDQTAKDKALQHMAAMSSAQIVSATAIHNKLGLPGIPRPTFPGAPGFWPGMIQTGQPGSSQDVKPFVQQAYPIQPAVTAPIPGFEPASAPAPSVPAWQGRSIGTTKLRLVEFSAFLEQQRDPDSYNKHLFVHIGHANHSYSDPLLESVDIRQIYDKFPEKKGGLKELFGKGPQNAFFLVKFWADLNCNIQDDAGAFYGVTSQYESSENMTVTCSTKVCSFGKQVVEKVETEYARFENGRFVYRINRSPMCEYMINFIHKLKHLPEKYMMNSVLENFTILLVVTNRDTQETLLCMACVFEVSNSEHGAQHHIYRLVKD

As for `C=CC(=O)Nc1ccc(Oc2cccc(C(F)(F)F)c2)s1` [Compound 11, N-(5-(3-(trifluoromethyl)phenoxy)thiophen-2-yl)acrylamide], the IC50 is ≤ 100 nM. Next, `C#Cc1cccc(Oc2ccc(NC(=O)C=C)cc2)c1` [Compound 3]: ≥ 5000 nM; `C=CC(=O)Nc1ccc(-c2cc(C(F)(F)F)on2)cc1` [Compound 28, N-(4-(5-(trifluoromethyl)isoxazol-3-yl)phenyl)acrylamide]: ≤ 100 nM; `C=CC(=O)NC1CC2(C1)CC(Oc1cccc(C(F)(F)F)c1)C2` (stereo not shown) [Compound 64, N-(6-(3-(trifluoromethyl)phenoxy)spiro[3.3]heptan-2-yl)acrylamide]: ≥ 5000 nM. Next, `CCCCCO/N=C1\CCc2cc(NC(=O)/C=C/CN(C)C)ccc21` [Compound 15, (E)-4-(dimethylamino)-N—((E)-1-((pentyloxy)imino)-2,3-dihydro-1H-inden-5-yl)but-2-enamide]: ≤ 100 nM; `C=CC(=O)Nc1ccc2c(c1)CCc1cn(CCCCC)nc1-2` [Compound 25]: 100 to 5000 nM; `C=CC(=O)Nc1ccc(-c2cc(C(C)(C)C)on2)cc1` [Compound 65, N-(4-(5-(tert-butyl)isoxazol-3-yl)phenyl)acrylamide]: 100 to 5000 nM. Then `C=CC(=O)Nc1ccc(-c2noc(C(F)(F)F)n2)c(Cl)c1` [Compound 33, N-(3-chloro-4-(5-(trifluoromethyl)-1,2,4-oxadiazol-3-yl)phenyl)acrylamide], with ≤ 100 nM; and `C=CC(=O)Nc1cccc(Oc2cc(C(F)(F)F)ccn2)c1` [Compound 13, N-(3-((4-(trifluoromethyl)pyridin-2-yl)oxy)phenyl)acrylamide], with ≤ 100 nM. For `C=CC(=O)NC1COCC(Oc2cccc(C(F)(F)F)c2)C1` (stereo not shown) [Compound 39, N-(5-(3-(trifluoromethyl)phenoxy)tetrahydro-2H-pyran-3-yl)acrylamide], the half-inhibitory concentration (IC50) is 100 to 5000 nM. Regarding `C=CC(=O)Nc1ccc(-c2cc(C3CC3)on2)cc1` [Compound 30, N-(4-(5-cyclopropylisoxazol-3-yl)phenyl)acrylamide], the IC50 was 100 to 5000 nM. Regarding `C=CC(=O)Nc1ccc2c(c1)CCC/C2=N\OCCCCC` [Compound 6], the IC50 was ≥ 5000 nM. Next, `C=CC(=O)Nc1ccc(-c2nocc2C(F)(F)F)cc1` [Compound 31, N-(4-(4-(trifluoromethyl)isoxazol-3-yl)phenyl)acrylamide]: ≤ 100 nM. In the case of `C=CC(=O)Nc1ccc(-c2ccn(CCCCC)n2)cc1` [Compound 24, N-(4-(1-pentyl-1H-pyrazol-3-yl)phenyl)acrylamide], the IC50 is ≤ 100 nM.

Take `C=CC(=O)Nc1ccc2c(c1)CC/C2=N/OCCCCC` [Compound 8]: the IC50 was ≥ 5000 nM.

Consider `C=CC(=O)N1CC(NCc2cccc(C(F)(F)F)c2)C1` [Compound 60, 1-(3-((3-(trifluoromethyl)benzyl)amino)azetidin-1-yl)prop-2-en-1-one], for which the IC50 lay in the range of 100 to 5000 nM. Next, `C=CC(=O)Nc1ccc(-c2ccn(CC(F)(F)F)n2)cc1` [Compound 55, N-(4-(1-(2,2,2-trifluoroethyl)-1H-pyrazol-3-yl)phenyl)acrylamide]: 100 to 5000 nM.

`C=CC(=O)Nc1ccc2c(c1)CCN(CCCCC)C2=O` [Compound 50, N-(1-oxo-2-pentyl-1,2,3,4-tetrahydroisoquinolin-6-yl)acrylamide]: the concentration for half-maximal inhibition (IC50) lay in the range of 100 to 5000 nM. Then `C=CC(=O)NC1CC2(CC(NCc3cccc(C(F)(F)F)c3)C2)C1` (stereo not shown) [Compound 63, N-(6-((3-(trifluoromethyl)benzyl)amino)spiro[3.3]heptan-2-yl)acrylamide], with ≤ 100 nM; and `C=CC(=O)NC1CCC(Oc2cccc(C(F)(F)F)c2)C1` (stereo not shown) [Compound 45, N-(3-(3-(trifluoromethyl)phenoxy)cyclopentyl)acrylamide], with 100 to 5000 nM.

Take `C=CC(=O)NC1CC(COc2cccc(C(F)(F)F)c2)C1` (stereo not shown) [Compound 58, N-(3-((3-(trifluoromethyl)phenoxy)methyl)cyclobutyl)acrylamide]: the IC50 is ≤ 100 nM. Next, `C=CC(=O)Nc1cccc(Oc2cccc(C(F)(F)F)c2)c1` [Compound 4]: ≤ 100 nM; `C=CC(=O)Nc1ccc(-c2cc(C(F)(F)F)ccn2)cc1` [Compound 51, N-(4-(4-(trifluoromethyl)pyridin-2-yl)phenyl)acrylamide]: 100 to 5000 nM; `C=CC(=O)Nc1cccc(Oc2ccc(C(F)(F)F)cn2)c1` [Compound 14, N-(3-((5-(trifluoromethyl)pyridin-2-yl)oxy)phenyl)acrylamide]: ≤ 100 nM. Next, `C=CC(=O)Nc1ccc2c(c1)CCc1c-2noc1CCCC` [Compound 27, N-(3-butyl-4,5-dihydronaphtho[1,2-c]isoxazol-7-yl)acrylamide]: 100 to 5000 nM.

Take `C=CC(=O)Nc1ccc2c(c1)CCC/C2=N\OCCOCC` [Compound 48, (E)-N-(5-((2-ethoxyethoxy)imino)-5,6,7,8-tetrahydronaphthalen-2-yl)acrylamide]: the half-inhibitory concentration (IC50) was ≤ 100 nM. On to `C=CC(=O)Nc1ccc2nc(OCCCC)ccc2c1` [Compound 18, N-(2-butoxyquinolin-6-yl)acrylamide], for which the 50% inhibitory concentration (IC50) is ≤ 100 nM. Then `C=CC(=O)N[C@@H]1CC[C@@H](Oc2cccc(C(F)(F)F)c2)C1` [Compound 43, N-((1R,3R)-3-(3-(trifluoromethyl)phenoxy)cyclopentyl)acrylamide], with 100 to 5000 nM. Then `C=CC(=O)Nc1ccc2c(OCCCCC)nccc2c1` [Compound 19, N-(1-(pentyloxy)isoquinolin-6-yl)acrylamide], with ≤ 100 nM; and `C=CC(=O)Nc1ccc(-n2ncc(C(F)(F)F)n2)c(Cl)c1` [Compound 35, N-(3-chloro-4-(4-(trifluoromethyl)-2H-1,2,3-triazol-2-yl)phenyl)acrylamide], with ≤ 100 nM; and `C=CC(=O)Nc1ccc2c(c1)CCC/C2=N\OCC` [Compound 47, (E)-N-(5-(ethoxyimino)-5,6,7,8-tetrahydronaphthalen-2-yl)acrylamide], with ≤ 100 nM. Turning to `C=CC(=O)Nc1cccc(Oc2cccc(OC)c2)c1` [Compound 9, N-(3-(3-methoxyphenoxy)phenyl)acrylamide], the concentration for half-maximal inhibition (IC50) is ≤ 100 nM. Next, `C=CC(=O)NC1CC(OCc2cccc(C(F)(F)F)c2)C1` (stereo not shown) [Compound 61, N-(3-((3-(trifluoromethyl)benzyl)oxy)cyclobutyl)acrylamide]: ≤ 100 nM.

Regarding `C=CC(=O)N1CC(Cc2ccc(C(F)(F)F)cc2)C1` [Compound 59, 1-(3-(4-(trifluoromethyl)benzyl)azetidin-1-yl)prop-2-en-1-one], the IC50 was in the range of 100 to 5000 nM.

For the molecule `C=CC(=O)Nc1ccc2c(c1)CCC/C2=N\OCC(C)C` [Compound 49, (E)-N-(5-(isobutoxyimino)-5,6,7,8-tetrahydronaphthalen-2-yl)acrylamide], the 50% inhibitory concentration (IC50) was ≤ 100 nM. Then `C=CC(=O)N1CC(Oc2ccc(C(F)(F)F)cc2)C1` [Compound 56, 1-(3-(4-(trifluoromethyl)phenoxy)azetidin-1-yl)prop-2-en-1-one], with 100 to 5000 nM; and `C=CC(=O)Nc1cc(F)cc(Oc2cccc(C(F)(F)F)c2)c1` [Compound 36, N-(3-fluoro-5-(3-(trifluoromethyl)phenoxy)phenyl)acrylamide], with ≤ 100 nM.

For `C=CC(=O)Nc1ccc(-c2cc(C(F)(F)F)sn2)cc1` [Compound 54, N-(4-(5-(trifluoromethyl)isothiazol-3-yl)phenyl)acrylamide], the half-inhibitory concentration (IC50) is ≤ 100 nM. Then `C=CC(=O)Nc1cccc(Oc2csc(C(F)(F)F)c2)c1` [Compound 10, N-(3-((5-(trifluoromethyl)thiophen-3-yl)oxy)phenyl)acrylamide], with ≤ 100 nM; and `C#Cc1cccc(Oc2ccccc2NC(=O)CCl)c1` [Compound 1], with ≥ 5000 nM; and `C#Cc1cccc(Oc2cccc(NC(=O)C=C)c2)c1` [Compound 2], with 100 to 5000 nM. Next, `C=CC(=O)Nc1cc(F)cc(Oc2ccc(C(F)(F)F)cc2)c1` [Compound 12, N-(3-fluoro-5-(4-(trifluoromethyl)phenoxy)phenyl)acrylamide]: ≤ 100 nM; `C=CC(=O)Nc1ccc(-c2cc(C(F)(F)F)cnn2)cc1` [Compound 53, N-(4-(5-(trifluoromethyl)pyridazin-3-yl)phenyl)acrylamide]: 100 to 5000 nM.

`C#CCCCO/N=C1/CCc2cc(NC(=O)C=C)ccc21` [Compound 7]: the IC50 is ≥ 5000 nM.

For `C=CC(=O)Nc1ccc(-n2cc(C(F)(F)F)nn2)c(Cl)c1` [Compound 34, N-(3-chloro-4-(4-(trifluoromethyl)-1H-1,2,3-triazol-1-yl)phenyl)acrylamide], the IC50 is ≤ 100 nM. Then `C#CCCCO/N=C1\CCCc2cc(NC(=O)C=C)ccc21` [Compound 5], with ≥ 5000 nM; and `C=CC(=O)Nc1ccc2c(Oc3ccc(C(F)(F)F)cn3)cccc2c1` [Compound 21, N-(5-((5-(trifluoromethyl)pyridin-2-yl)oxy)naphthalen-2-yl)acrylamide], with ≤ 100 nM. Next, `C=CC(=O)Nc1cccc(Oc2ccc(C(F)(F)F)cc2)c1` [Compound 38, N-(3-(4-(trifluoromethyl)phenoxy)phenyl)acrylamide]: ≤ 100 nM; `C=CC(=O)N[C@H]1CC[C@@H](Oc2cccc(C(F)(F)F)c2)C1` (single isomer, unassigned) [Compound 42, N-((1S*,3R*)-3-(3-(trifluoromethyl)phenoxy)cyclopentyl)acrylamide]: 100 to 5000 nM.

As a reminder, the IC50 is the point on the concentration scale where inhibition reaches its midpoint.

The values above are taken from patent publication US12583815B2, “Inhibitors of YAP/TAZ-TEAD oncoproteins, synthesis and use thereof” (BRIDGENE BIOSCIENCES, INC., priority 2020, dated 2026).
